What is called pIC50 is the negative decadic logarithm of the IC50, by convention in mol/L. Read a low pIC50 as a high IC50. As a reminder, the melting point is the temperature, or range, at which the solid turns liquid.

The record followed here is US20120225862A1, “HETEROARYL BENZAMIDES, COMPOSITIONS AND METHODS OF USE” (AUCKLAND UNIVSERVICES LIMITED, priority 2009, published 2012).

The subject of series [1] is RCC4. The series is described as follows: XTT IC50 / viability assay, RCC4 cells. The class given is cell-based, human. The settings on record: Homo sapiens, RCC4, 96 h; XTT assay, four days. The method in brief: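 RCC4 parental and VHL-reintroduced RCC4/VHL cells (DMEM, 10% FCS) treated with serially diluted drug for four days. Viability by XTT (0.3 mg/mL) with N-methyl dibenzopyrazine methyl sulfate, 1–2 h at 37 °C, absorbance 450 nm; IC50 by linear interpolation.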

pIC50: −log10 of the molar value.

`CC(C)(C)c1ccc(S(=O)(=O)NCc2ccc(C(=O)Nc3ccc(Br)nc3)cc2)cc1` [Example 125, N-(6-Bromo-3-pyridinyl)-4-({[(4-tert-butylphenyl)sulfonyl]amino}methyl)benzamide]: the melting point lay in the range of 242 to 244 °C. The negative logarithm of the IC50 (pIC50) in series [1] is less than 4.70. The compound `O=C(Nc1cccnc1)c1ccc(CNS(=O)(=O)c2ccc(C#CCO)cc2)cc1` [Example 103, 4-[({[4-(3-Hydroxy-1-propynyl)phenyl]sulfonyl}amino)methyl]-N-(3-pyridinyl)benzamide] registered a melting point of 207 to 210 °C. This compound showed a pIC50 in series [1] of less than 4.70.

Compound `O=C(Nc1ccc[n+]([O-])c1)c1ccc(CNS(=O)(=O)c2ccccc2)cc1` [Example 93, N-(1-Oxido-3-pyridinyl)-4-((phenylsulfonamido)methyl)-benzamide] registered a melting point of 230 to 231 °C. In series [1], the pIC50 was less than 4.70. In the case of `O=C(Nc1ccncc1)c1ccc(CNS(=O)(=O)c2ccc(I)cc2)cc1` [Example 99], the melting point lay in the range of 270 to 273 °C. In series [1], this compound showed a pIC50 of less than 4.70.

For the compound `COC(=O)c1ccccc1S(=O)(=O)NCc1ccc(C(=O)Nc2cccnc2)cc1` [Example 14, Methyl 2-(N-(4-(Pyridin-3-ylcarbamoyl)benzyl)sulfamoyl)benzoate], the melting point fell in the range of 155 to 157 °C. The negative logarithm of the IC50 (pIC50) in series [1] was less than 4.70. The compound `Cc1cc(C)cc(C(=O)NCc2ccc(C(=O)Nc3cccnc3)cc2)c1` [Example 87, 3,5-Dimethyl-N-(4-(pyridin-3-ylcarbamoyl)benzyl)benzamide] displayed a melting point of 241 to 243 °C. Besides, in series [1], the negative-log IC50 (pIC50) is less than 4.70. The matching figures for `CC(=O)Nc1ccc(NC(=O)c2ccc(CNS(=O)(=O)c3ccc(C(C)(C)C)cc3)cc2)cn1` [Example 119, N-[6-(Acetylamino)-3-pyridinyl]-4-({[(4-tert-butylphenyl)sulfonyl]amino}methyl)benzamide]: 240 to 243 °C and less than 4.70. `Cc1ccc(NC(=O)c2ccc(CNS(=O)(=O)c3ccc(C(C)(C)C)cc3)cc2)cn1` [Example 109, 4-({[(4-tert-Butylphenyl)sulfonyl]amino}methyl)-N-(6-methyl-3-pyridinyl)benzamide] showed a melting point of 235 to 237 °C. Further, the pIC50 in series [1] was less than 4.70. Compound `O=C(Nc1nccs1)c1ccc(CNS(=O)(=O)c2ccccc2)cc1` [Example 4, 4-(Phenylsulfonamidomethyl)-N-(thiazol-2-yl)benzamide] returned a melting point of 189 to 191 °C. Moreover, the pIC50 in series [1] was less than 4.70. On to `CC(C)(C)c1ccc(S(=O)(=O)NCc2ccc(C(=O)Nc3ccc(F)nc3)cc2)cc1` [Example 120, 4-({[(4-tert-Butylphenyl)sulfonyl]amino}methyl)-N-(6-fluoro-3-pyridinyl)benzamide], for which the melting point fell in the range of 254 to 257 °C. The pIC50 in series [1] was less than 4.70.

Compound `O=C(Nc1cc[nH]n1)c1ccc(CNS(=O)(=O)c2ccccc2)cc1` [Example 5, 4-(Phenylsulfonamidomethyl)-N-(1H-pyrazol-3-yl)benzamide] gave a melting point of 180 to 182 °C. In series [1], the pIC50 is less than 4.70. `O=C(Nc1cccnc1)c1ccc(CNS(=O)(=O)c2ccc(-c3cccc(C(F)(F)F)c3)cc2)cc1` [Example 134, N-(3-Pyridinyl)-4-[({[3′-(trifluoromethyl)[1,1′-biphenyl]-4-yl]sulfonyl}amino)methyl]benzamide] registered a melting point of 227 to 229 °C. In series [1], the negative logarithm of the IC50 (pIC50) was less than 4.70. With `COc1ccncc1NC(=O)c1ccc(CNS(=O)(=O)c2ccc(C(C)(C)C)cc2)cc1` [Example 124, 4-({[(4-tert-Butylphenyl)sulfonyl]amino}methyl)-N-(4-methoxy-3-pyridinyl)benzamide], the melting point lay within 231 to 233 °C. The compound also showed a pIC50 in series [1] of less than 4.70. `CC(C)(C)c1ccc(S(=O)(=O)NCc2ccc(C(=O)Nc3ccc(C(F)(F)F)nc3)cc2)cc1` [Example 118, 4-({[(4-tert-Butylphenyl)sulfonyl]amino}methyl)-N-[6-(trifluoromethyl)-3-pyridinyl]benzamide] displayed a melting point of 249 to 252 °C. In series [1], this compound showed a pIC50 of less than 4.70. The compound `CCCN(Cc1ccc(C(=O)Nc2cccnc2)cc1)S(=O)(=O)c1ccc(C(C)(C)C)cc1` [Example 140, 4-{[[(4-tert-Butylphenyl)sulfonyl](propyl)amino]methyl}-N-(3-pyridinyl)benzamide] gave a melting point of 177 to 179 °C. Also, the pIC50 in series [1] was less than 4.70. Turning to `O=C(Nc1cnccn1)c1ccc(CNS(=O)(=O)c2ccccc2)cc1` [Example 8, 4-(Phenylsulfonamidomethyl)-N-(pyrazin-2-yl)benzamide], the melting point lay in the range of 200 to 202 °C. This compound also gave a pIC50 in series [1] of less than 4.70.

With `CC(C)(C)c1ccc(S(=O)(=O)NCc2ccc(C(=O)Nc3ccc(Cl)nc3)cc2)cc1` [Example 111, 4-({[(4-tert-Butylphenyl)sulfonyl]amino}methyl)-N-(6-chloro-3-pyridinyl)benzamide], the melting point was in the range of 251 to 253 °C. The compound further gave a negative-log IC50 (pIC50) in series [1] of less than 4.70.

The compound `COC(=O)c1ccc(S(=O)(=O)NCc2ccc(C(=O)Nc3cccnc3)cc2)cc1` [Example 47, Methyl 4-(N-(4-(Pyridin-3-ylcarbamoyl)benzyl)sulfamoyl)benzoate] gave a melting point of 212 to 215 °C. In series [1], this compound gave a pIC50 of less than 4.70. The compound `Cc1ncccc1NC(=O)c1ccc(CNS(=O)(=O)c2ccc(C(C)(C)C)cc2)cc1` [Example 108, 4-({[(4-tert-Butylphenyl)sulfonyl]amino}methyl)-N-(2-methyl-3-pyridinyl)benzamide] returned a melting point of 188 to 190 °C. The pIC50 in series [1] was less than 4.70. Take `CC(C)(C)c1ccc(S(=O)(=O)NCc2ccc(C(=O)Nc3cncc(F)c3)cc2)cc1` [Example 121, 4-({[(4-tert-Butylphenyl)sulfonyl]amino}methyl)-N-(5-fluoro-3-pyridinyl)benzamide]: the melting point lay in the range of 214 to 217 °C. Further, the pIC50 in series [1] is less than 4.70. With `C=CC(=O)Nc1cccc(S(=O)(=O)NCc2ccc(C(=O)Nc3cccnc3)cc2)c1` [Example 144, 4-[({[3-(Acryloylamino)phenyl]sulfonyl}amino)methyl]-N-(3-pyridinyl)benzamide], the melting point is 178 to 180 °C. The compound `Cc1cc(CNS(=O)(=O)c2ccc(C(C)(C)C)cc2)ccc1C(=O)Nc1cccnc1` [Example 145, 4-({[(4-tert-Butylphenyl)sulfonyl]amino}methyl)-2-methyl-N-(3-pyridinyl)benzamide] registered a melting point of 162 to 163 °C. `O=C(Nc1cccnc1)c1ccc(CNS(=O)(=O)c2ccc(C34CC5CC(CC(Cl)(C5)C3)C4)cc2)cc1` (hydrate or solvate) [Example 40, 4-[({[4-(3-chloro-1-adamantyl)phenyl]sulfonyl}amino)methyl]-N-(3-pyridinyl)benzamide] yielded a melting point of 229 to 232 °C. The compound `O=C(Nc1cccnc1)c1ccc(CNS(=O)(=O)c2ccc(C34CC5CC(CC(C5)C3)C4)cc2)cc1` (hydrate or solvate) [Example 39, 4-[({[4-(1-Adamantyl)phenyl]sulfonyl}amino)methyl]-N-(3-pyridinyl)benzamide] came in with a melting point of 220 to 222 °C.
